{
  "source": "ChEMBL document CHEMBL6087420",
  "about": "“Synthesis and pharmacodynamic evaluation of 2-aminoindole derivatives against influenza A virus in vitro/vivo” (Eur J Med Chem, 2025)",
  "key": {"[1]": {"system": "Influenza A virus", "experiment": "Anti-influenza activity against influenza A virus H1NI (A/Virginia/ATCC2/2009) infected in dog MDCK cells incubated for 72 hrs by MTT assay", "type": "functional, organism-based", "conditions": "Influenza A virus, H1NI (A/Virginia/ATCC2/2009), MDCK, 72 h"}, "[2]": {"experiment": "Selectivity index, ratio of CC50 for dog MDCK cells to EC50 for antiviral activity against Influenza A virus H1N1 (A/Weiss/43) infected in MDCK cells", "type": "toxicity, cell-based", "conditions": "read-out: Ratio CC50/EC50"}, "[3]": {"system": "Influenza A virus", "experiment": "Anti-influenza activity against influenza A virus H3N2 (A/California/2014) infected in dog MDCK cells incubated for 72 hrs by MTT assay", "type": "functional, organism-based"}, "[4]": {"experiment": "Selectivity index, ratio of CC50 for dog MDCK cells to EC50 for antiviral activity against Influenza A virus H1NI (A/Virginia/ATCC2/2009) infected in MDCK cells", "type": "toxicity, cell-based", "conditions": "read-out: Selectivity Index"}, "[5]": {"system": "Influenza A virus", "experiment": "Antiviral activity against influenza A virus H1NI (A/Weiss/43) virus infected in dog MDCK cells assessed as viral inhibition treated after 2 hrs of viral infection measured at 72 hrs incubation by MTT assay", "type": "functional"}, "[6]": {"system": "Influenza A virus", "experiment": "Inhibition of influenza A virus infection induced apoptosis in MDCK cells infected with influenza virus assessed as viable cells at 25 uM incubated for 36 hrs by AnnexinV-FITC/PI staining based flow cytometry (reference value: 66.9%)", "type": "functional"}, "[7]": {"system": "Influenza A virus", "experiment": "Inhibition of influenza A virus infection induced apoptosis in MDCK cells infected with influenza virus assessed as late apoptotic cells at 25 uM incubated for 36 hrs by AnnexinV-FITC/PI staining based flow cytometry (reference value: 13.2%)", "type": "functional", "set-up": "scale not given: the % may be the effect or the level left"}, "[8]": {"system": "Influenza A virus", "experiment": "Inhibition of influenza A virus infection induced apoptosis in MDCK cells infected with influenza virus assessed as viable cells at 50 uM incubated for 36 hrs by AnnexinV-FITC/PI staining based flow cytometry (reference value: 66.9%)", "type": "functional"}, "[9]": {"system": "Influenza A virus", "experiment": "Inhibition of influenza A virus infection induced apoptosis in MDCK cells infected with influenza virus assessed as early apoptotic cells at 50 uM incubated for 36 hrs by AnnexinV-FITC/PI staining based flow cytometry (reference value: 18.2%)", "type": "functional", "set-up": "scale not given: the % may be the effect or the level left"}, "[10]": {"system": "Influenza A virus", "experiment": "Inhibition of influenza A virus infection induced apoptosis in MDCK cells infected with influenza virus assessed as necrotic cells at 50 uM incubated for 36 hrs by AnnexinV-FITC/PI staining based flow cytometry (reference value: 1.79%)", "type": "functional", "set-up": "scale not given: the % may be the effect or the level left"}, "[11]": {"system": "Influenza A virus", "experiment": "Inhibition of influenza A virus infection induced apoptosis in MDCK cells infected with influenza virus assessed as viable cells at 100 uM incubated for 36 hrs by AnnexinV-FITC/PI staining based flow cytometry (reference value: 66.9%)", "type": "functional"}, "[12]": {"system": "Influenza A virus", "experiment": "Inhibition of influenza A virus infection induced apoptosis in MDCK cells assessed as late apoptotic cells at 100 uM incubated for 36 hrs by AnnexinV-FITC/PI staining based flow cytometry (reference value: 0.70%)", "type": "functional", "set-up": "scale not given: the % may be the effect or the level left"}, "[13]": {"system": "Influenza A virus", "experiment": "In vivo antiviral activity against influenza A virus infected in BALB/c mouse assessed as reduction in lung index at 25 to 100 mg/kg", "type": "functional, organism-based", "conditions": "dose 25-100 mg/kg"}, "[14]": {"system": "Influenza A virus", "experiment": "Antiviral activity against influenza A virus infected in human A549 cells assessed as inhibition of RIG-1 expression by qRT-PCR analysis", "type": "functional, organism-based"}, "[15]": {"system": "Influenza A virus", "experiment": "Antiviral activity against influenza A virus infected in human A549 cells assessed as inhibition of IRF7 expression by qRT-PCR analysis", "type": "functional, organism-based"}, "[16]": {"system": "Influenza A virus", "experiment": "Antiviral activity against influenza A virus infected in A549 cells assessed as decrease in IAV-NP expression at 25 to 100 uM cells pretreated for 48 hrs followed by infected with virus by green fluorescent labelling based confocal microscopy", "type": "functional, organism-based", "conditions": "dose 25-100 µM"}, "[17]": {"system": "Influenza A virus", "experiment": "Antiviral activity against influenza A virus infected in human A549 cells assessed as inhibition of IFN-beta expression by qRT-PCR analysis", "type": "functional, organism-based"}, "[18]": {"system": "Influenza A virus", "experiment": "Antiviral activity against influenza A virus infected in human A549 cells assessed as inhibition of RIG-1 protein expression at 25 to 100 uM by Western blot analysis", "type": "functional, organism-based", "conditions": "dose 25-100 µM"}, "[19]": {"system": "Influenza A virus", "experiment": "Antiviral activity against influenza A virus H1NI (A/Weiss/43) infected in human A549 cells assessed as reduction in viral titers in supernatants at 0.25 to 100 uM", "type": "functional, organism-based", "conditions": "dose 0.25-100 µM"}, "[20]": {"system": "Influenza A virus", "experiment": "Antiviral activity against influenza A virus H1NI (A/Weiss/43) infected in compound pretreated MDCK cells assessed as reduction in viral absorption", "type": "functional, organism-based"}, "[21]": {"system": "Influenza A virus", "experiment": "Antiviral activity against influenza A virus infected in A549 cells assessed as decrease in IAV-M2 expression at 25 to 100 uM cells pretreated for 48 hrs followed by infected with virus by green fluorescent labelling based confocal microscopy", "type": "functional, organism-based", "conditions": "dose 25-100 µM"}, "[22]": {"system": "Influenza A virus", "experiment": "Inhibition of influenza A virus infection induced apoptosis in MDCK cells infected with influenza virus assessed as decrease in cleaved caspase 9 incubated for 36 hrs by Western blot analysis", "type": "functional, organism-based"}, "[23]": {"system": "Influenza A virus", "experiment": "Inhibition of influenza A virus infection induced apoptosis in MDCK cells infected with influenza virus assessed as decrease in cleaved caspase 3 at 25 to 100 uM incubated for 36 hrs by Western blot analysis", "type": "functional, organism-based", "conditions": "dose 25-100 µM"}, "[24]": {"system": "Influenza A virus", "experiment": "In vivo antiviral activity against influenza A virus infected in BALB/c mouse assessed as reduction in lung lesions at 25 to 100 mg/kg", "type": "functional, organism-based", "conditions": "dose 25-100 mg/kg"}, "[25]": {"system": "Influenza A virus", "experiment": "In vivo antiviral activity against influenza A virus infected in BALB/c mouse assessed as reduction in RIG-I mRNA level in lung at 25 to 100 mg/kg measured after 6 dpi", "type": "functional, organism-based", "conditions": "dose 25-100 mg/kg"}, "[26]": {"system": "Influenza A virus", "experiment": "In vivo antiviral activity against influenza A virus infected in BALB/c mouse assessed as reduction in TLR-3 mRNA level in lung at 25 to 100 mg/kg measured after 6 dpi", "type": "functional, organism-based", "conditions": "dose 25-100 mg/kg"}, "[27]": {"system": "Influenza A virus", "experiment": "In vivo antiviral activity against influenza A virus infected in BALB/c mouse assessed as reduction in NLRP-3 mRNA level in lung at 25 to 100 mg/kg measured after 6 dpi", "type": "functional, organism-based", "conditions": "dose 25-100 mg/kg"}, "[28]": {"system": "Influenza A virus", "experiment": "In vivo antiviral activity against influenza A virus infected in BALB/c mouse assessed as reduction in iNOS mRNA level in lung at 25 to 100 mg/kg measured after 6 dpi", "type": "functional, organism-based", "conditions": "dose 25-100 mg/kg"}, "[29]": {"system": "Influenza A virus", "experiment": "In vivo antiviral activity against influenza A virus infected in BALB/c mouse assessed as reduction in Caspase-1 mRNA level in lung at 25 to 100 mg/kg measured after 6 dpi", "type": "functional, organism-based", "conditions": "dose 25-100 mg/kg"}, "[30]": {"system": "Influenza A virus", "experiment": "In vivo antiviral activity against influenza A virus infected in BALB/c mouse assessed as reduction in ASC mRNA level in lung at 25 to 100 mg/kg measured after 6 dpi", "type": "functional, organism-based", "conditions": "dose 25-100 mg/kg"}, "[31]": {"system": "Influenza A virus", "experiment": "In vivo antiviral activity against influenza A virus infected in BALB/c mouse assessed as reduction in apoptotic cells at 25 to 100 mg/kg measured after 6 dpi by TUNEL assay", "type": "functional, organism-based", "conditions": "dose 25-100 mg/kg"}, "[32]": {"experiment": "Toxicity in healthy BALB/c mouse assessed as pathological change in heart at 25 to 100 mg/kg administered through gavage for 6 days", "type": "organism-based", "conditions": "in vivo, po, 144 h, dose 25-100 mg/kg, time 6 day"}, "[33]": {"experiment": "Toxicity in healthy BALB/c mouse assessed as change in blood indicators at 25 to 100 mg/kg administered through gavage for 6 days", "type": "organism-based", "conditions": "in vivo, po, 144 h, dose 25-100 mg/kg, time 6 day"}},
  "note": "Active and inactive are the calls of the source. The rule behind the calls is not given here.",
  "data": [
    {"smiles": "COc1ccc2c(c1)c(-c1ccccc1)c(NS(C)(=O)=O)n2S(=O)(=O)c1ccc(C)cc1", "values": [
      {"measurement": "EC50", "setting": "[1]", "result": 12.9, "unit": "µM"},
      {"measurement": "selectivity ratio", "setting": "[2]", "result": 80},
      {"measurement": "EC50", "setting": "[3]", "result": 18.3, "unit": "µM"},
      {"measurement": "selectivity ratio", "setting": "[4]", "result": 51.9},
      {"measurement": "inhibition (INH)", "setting": "[5]", "result": 87.37, "unit": "%"},
      {"measurement": "Activity", "setting": "[6]", "result": 71.9, "unit": "%"},
      {"measurement": "Activity", "setting": "[7]", "result": 9.29, "unit": "%"},
      {"measurement": "Activity", "setting": "[8]", "result": 85.5, "unit": "%"},
      {"measurement": "Activity", "setting": "[9]", "result": 9.21, "unit": "%"},
      {"measurement": "Activity", "setting": "[10]", "result": 1.25, "unit": "%"},
      {"measurement": "Activity", "setting": "[11]", "result": 92.8, "unit": "%"},
      {"measurement": "Activity", "setting": "[12]", "result": 0.83, "unit": "%"},
      {"measurement": "Activity", "setting": "[13]", "result": "Active"},
      {"measurement": "Activity", "setting": "[14]", "result": "Active"},
      {"measurement": "Activity", "setting": "[15]", "result": "Active"},
      {"measurement": "Activity", "setting": "[16]", "result": "Active"},
      {"measurement": "Activity", "setting": "[17]", "result": "Active"},
      {"measurement": "Activity", "setting": "[18]", "result": "Active"},
      {"measurement": "Activity", "setting": "[19]", "result": "Active"},
      {"measurement": "Activity", "setting": "[20]", "result": "inactive"},
      {"measurement": "Activity", "setting": "[21]", "result": "Active"},
      {"measurement": "Activity", "setting": "[22]", "result": "Dose-dependent-effect"},
      {"measurement": "Activity", "setting": "[23]", "result": "Active"},
      {"measurement": "Activity", "setting": "[24]", "result": "Active; Compound Alleviate Red Liver-Like Degeneration Stage, With Edema And Expansion, And Dark Red Lesions And Lung Consolidation - Only Mild Edema Observed"},
      {"measurement": "Activity", "setting": "[25]", "result": "Active"},
      {"measurement": "Activity", "setting": "[26]", "result": "Active"},
      {"measurement": "Activity", "setting": "[27]", "result": "Active"},
      {"measurement": "Activity", "setting": "[28]", "result": "Active"},
      {"measurement": "Activity", "setting": "[29]", "result": "Active"},
      {"measurement": "Activity", "setting": "[30]", "result": "Active"},
      {"measurement": "Activity", "setting": "[31]", "result": "Active"},
      {"measurement": "Activity", "setting": "[32]", "result": "Non-toxic"},
      {"measurement": "Activity", "setting": "[33]", "result": "Non-toxic"}
    ]}
  ]
}
